≈ marks a conversion by molar mass, not a printed value.
What was measured:
S. aureus = format: cell-based
S. pneumoniae = format: cell-based
[1] = test system: ribosome erm-dimethylated at A2058; assay: binding to the ribosome

`CC[C@H]1OC(=O)[C@H](C)[C@@H](OC2CC(C)(OC)C(O)C(C)O2)[C@H](C)[C@@H](OC2OC(C)CC(N(C)C)C2O)[C@@](C)(OC)C[C@@H](C)C(=O)[C@H](C)[C@H]2N(CCCCn3cc(-c4cccc(N)c4)nn3)C(=O)O[C@]12C` (stereo partly drawn) [Entry 20c] was tested, and the MIC (S. aureus) was 8 µg/mL (≈ 8.1 µM), the MIC (S. pneumoniae) was “≦0.0625 μg/mL” and the “binding to the ribosome” value [1] was “considerable binding”.
